Laboratory results: patent publication US12187702B2, “Sulfonamideurea compounds” (Inflazome Limited, priority 2018, dated 2025)
Structures can show the parent of a compound that is named as a salt.

Experiments:
NLRP3 [1] = target: T1, NLRP3 (Homo sapiens, UniProt Q96P20); experiment: Human whole blood IL-1β release assay (LPS + nigericin, AlphaLisa); type: cell-based; set-up: Plate out 80 μl of whole blood containing 1 μg/ml of LPS; from tissue; host or cells: human whole blood from healthy donors
T1 sequence (Q96P20 whole entry): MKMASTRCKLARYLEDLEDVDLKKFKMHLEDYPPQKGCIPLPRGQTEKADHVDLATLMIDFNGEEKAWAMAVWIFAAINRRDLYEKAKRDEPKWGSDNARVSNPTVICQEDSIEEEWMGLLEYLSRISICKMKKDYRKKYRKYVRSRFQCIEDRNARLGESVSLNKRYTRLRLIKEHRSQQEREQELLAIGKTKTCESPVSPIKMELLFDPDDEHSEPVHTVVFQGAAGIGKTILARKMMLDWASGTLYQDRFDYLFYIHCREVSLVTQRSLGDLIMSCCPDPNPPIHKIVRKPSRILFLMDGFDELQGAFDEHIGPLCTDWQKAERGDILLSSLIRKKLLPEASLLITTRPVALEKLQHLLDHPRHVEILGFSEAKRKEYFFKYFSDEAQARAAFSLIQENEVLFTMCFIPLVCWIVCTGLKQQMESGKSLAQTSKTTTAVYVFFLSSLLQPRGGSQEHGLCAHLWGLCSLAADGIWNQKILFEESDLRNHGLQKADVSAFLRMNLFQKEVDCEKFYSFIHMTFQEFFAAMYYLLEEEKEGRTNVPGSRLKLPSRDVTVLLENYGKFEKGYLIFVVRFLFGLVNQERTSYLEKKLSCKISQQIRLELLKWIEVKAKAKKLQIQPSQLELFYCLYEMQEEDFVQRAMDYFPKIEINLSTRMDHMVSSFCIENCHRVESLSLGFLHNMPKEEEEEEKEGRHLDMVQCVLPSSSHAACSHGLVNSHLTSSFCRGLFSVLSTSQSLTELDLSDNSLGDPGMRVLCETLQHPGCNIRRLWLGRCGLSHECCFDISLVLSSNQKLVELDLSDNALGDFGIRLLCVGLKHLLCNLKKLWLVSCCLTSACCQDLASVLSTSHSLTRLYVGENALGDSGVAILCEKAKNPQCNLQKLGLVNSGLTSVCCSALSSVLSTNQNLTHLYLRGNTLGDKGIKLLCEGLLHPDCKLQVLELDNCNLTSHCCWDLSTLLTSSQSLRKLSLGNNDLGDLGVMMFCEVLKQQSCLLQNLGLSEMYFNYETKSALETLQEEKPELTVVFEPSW
Procedure: For systemic delivery, the ability to inhibit NLRP3 when the compounds are present within the bloodstream is of great importance. For this reason, the NLRP3 inhibitory activity of a number of compounds in human whole blood was investigated in accordance with the following protocol.
Human whole blood in Li-heparin tubes was obtained from healthy donors from a volunteer donor panel. • 1. Plate out 80 μl of whole blood containing 1 μg/ml of LPS in 96-well, clear bottom cell culture plate (Corning #3585) • 2. Add 10 μl compound (8 points half-log dilution with 10 μM top dose) or vehicle (DMSO 0.1% FAC) to the appropriate wells • 3. Incubate for 3 hrs at 37° C., 5% CO2 • 4. Add 10 μl nigericin (Sigma #N7143) (10 μM FAC) to all wells • 5. Incubate for 1 hr at 37° C., 5% CO2 • 6. At the end of the incubation period, spin plates at 300×g for 5 mins to pellet cells and remove 20 μl of supernatant and add to 96-well v-bottom plates for IL-1β analysis (note: these plates containing the supernatants can be stored at −80° C. to be analysed at a later date) • 7. IL-1β was measured according to the manufacturer protocol (Perkin Elmer-AlphaLisa IL-1 Kit AL220F-5000) • 8. IC50 data is fitted to a non-linear regression equation (log inhibitor vs response-variable slope 4-parameters)

NLRP3 [2] = target: T1, NLRP3; experiment: THP-1 cells pyroptosis assay (LPS + nigericin, resazurin read-out); type: cell-based; set-up: Seed THP-1 cells (25,000 cells/well) containing 1.0 μg/ml LPS; host or cells: THP-1 cells
Procedure: THP-1 cells (ATCC #TIB-202) were grown in RPMI containing L-glutamine (Gibco #11835) supplemented with 1 mM sodium pyruvate (Sigma #S8636) and penicillin (100 units/ml)/streptomycin (0.1 mg/ml) (Sigma #P4333) in 10% Fetal Bovine Serum (FBS) (Sigma #F0804). The cells were routinely passaged and grown to confluency (˜10^6 cells/ml). On the day of the experiment, THP-1 cells were harvested and resuspended into RPMI medium (without FBS). The cells were then counted and viability (>90%) checked by Trypan blue (Sigma #T8154). Appropriate dilutions were made to give a concentration of 625,000 cells/ml. To this diluted cell solution was added LPS (Sigma #L4524) to give a 1 μg/ml Final Assay Concentration (FAC). 40 μl of the final preparation was aliquoted into each well of a 96-well plate. The plate thus prepared was used for compound screening.
The following method step-by-step assay was followed for compound screening. • 1. Seed THP-1 cells (25,000 cells/well) containing 1.0 μg/ml LPS in 40 μl of RPMI medium (without FBS) in 96-well, black walled, clear bottom cell culture plates coated with poly-D-lysine (VWR #734-0317) • 2. Add 5 μl compound (8 points half-log dilution, with 10 μM top dose) or vehicle (DMSO 0.1% FAC) to the appropriate wells • 3. Incubate for 3 hrs at 37° C., 5% CO2 • 4. Add 5 μl nigericin (Sigma #N7143) (FAC 5 μM) to all wells • 5. Incubate for 1 hr at 37° C., 5% CO2 • 6. At the end of the incubation period, spin plates at 300×g for 3 mins and remove supernatant • 7. Then add 50 μl of resazurin (Sigma #R7017) (FAC 100 μM resazurin in RPMI medium without FBS) and incubate plates for a further 1-2 hrs at 37° C. and 5% CO2 • 8. Plates were read in an Envision reader at Ex 560 nm and Em 590 nm • 9. IC50 data is fitted to a non-linear regression equation (log inhibitor vs response-variable slope 4-parameters)

[3] = human whole blood, 1 μg/ml LPS, 10 μM nigericin, IL-1β release, read-out: HWB IC50
[4] = THP-1 cells, 1 μg/ml LPS, 5 μM nigericin, NLRP3 inhibitory activity, read-out: THP IC50

Work on `CN1CCC(NS(=O)(=O)NC(=O)Nc2c3c(cc4c2CCC4)CCC3)C1` (stereo not shown) [Example 44, 3-(N-(1-Methylpyrrolidin-3-yl))sulfamoyl)-1-(1,2,3,5,6,7-hexahydro-s-indacen-4-yl)urea, potassium salt] yielded an IC50 (NLRP3 [1]; [3]) of less than 500 nM and an IC50 (NLRP3 [2]; [4]) of less than 1000 nM.
Compound `C#CCCC1(CCNS(=O)(=O)NC(=O)Nc2c3c(cc4c2CCC4)CCC3)N=N1` [Example 45, 3-(N-(2-(3-(but-3-yn-1-yl)-3H-diazirin-3-yl)ethyl))sulfamoyl)-1-(1,2,3,5,6,7-hexahydro-s-indacen-4-yl)urea, potassium salt] has an IC50 (NLRP3 [1]; [3]) of less than 10000 nM and an IC50 (NLRP3 [2]; [4]) of less than 500 nM.
`O=C(Nc1c2c(cc3c1CCC3)CCC2)NS(=O)(=O)N1CC(N2CCC2)C1` [Example 46, N-((1,2,3,5,6,7-Hexahydro-s-indacen-4-yl)carbamoyl)-[1,3′-biazetidine]-1′-sulfonamide, potassium salt] showed an IC50 (NLRP3 [1]; [3]) of less than 5000 nM and an IC50 (NLRP3 [2]; [4]) of less than 1000 nM.
`CCN1CCC1CNS(=O)(=O)NC(=O)Nc1c2c(cc3c1CCC3)CCC2` (stereo not shown) [Example 47, 3-(N-((1-Ethylazetidin-2-yl)methyl)sulfamoyl)-1-(1,2,3,5,6,7-hexahydro-s-indacen-4-yl)urea, potassium salt] was tested, and the IC50 (NLRP3 [1]; [3]) was less than 1000 nM and the IC50 (NLRP3 [2]; [4]) was less than 1000 nM.
For `CCN(CC)C1CCN(S(=O)(=O)NC(=O)Nc2c3c(cc4c2CCC4)CCC3)C1` (stereo not shown) [Example 49, 3-(3-((Diethylamino)pyrrolidine)-1-sulfamoyl)-1-(1,2,3,5,6,7-hexahydro-s-indacen-4-yl)urea, potassium salt], the IC50 (NLRP3 [1]; [3]) was less than 500 nM and the IC50 (NLRP3 [2]; [4]) was less than 500 nM.
`CC(C)N1CCC1CNS(=O)(=O)NC(=O)Nc1c2c(cc3c1CCC3)CCC2` (stereo not shown) [Example 50, 3-(N-((1-Isopropylazetidin-2-yl)methyl)sulfamoyl)-1-(1,2,3,5,6,7-hexahydro-s-indacen-4-yl)urea, potassium salt] gave an IC50 (NLRP3 [1]; [3]) of less than 500 nM and an IC50 (NLRP3 [2]; [4]) of less than 500 nM.
With `CN1CCCC(NS(=O)(=O)NC(=O)Nc2c3c(cc4c2CCC4)CCC3)C1` (stereo not shown) [Example 52, 3-(N-(1-Methylpiperidin-3-yl)sulfamoyl)-1-(1,2,3,5,6,7-hexahydro-s-indacen-4-yl)urea, potassium salt] the IC50 (NLRP3 [1]; [3]) was less than 500 nM and the IC50 (NLRP3 [2]; [4]) was less than 500 nM.
Work on `CN(C)CCN(CCCc1ccccc1)S(=O)(=O)NC(=O)Nc1c2c(cc3c1CCC3)CCC2` [Example 58, 3-(N-(2-(Dimethylamino)ethyl)-N-(3-phenylpropyl)sulfamoyl)-1-(1,2,3,5,6,7-hexahydro-s-indacen-4-yl)urea, potassium salt] yielded an IC50 (NLRP3 [1]; [3]) of less than 5000 nM and an IC50 (NLRP3 [2]; [4]) of less than 500 nM.
Work on `CCN1C2CCC1CN(S(=O)(=O)NC(=O)Nc1c3c(cc4c1CCC4)CCC3)C2` [Example 61, 8-Ethyl-N-((1,2,3,5,6,7-hexahydro-s-indacen-4-yl)carbamoyl)-3,8-diazabicyclo[3.2.1]octane-3-sulfonamide, potassium salt] yielded an IC50 (NLRP3 [1]; [3]) of less than 500 nM and an IC50 (NLRP3 [2]; [4]) of less than 500 nM.
`CCN1CC2CCC(C1)N2S(=O)(=O)NC(=O)Nc1c2c(cc3c1CCC3)CCC2` [Example 62, 3-Ethyl-N-((1,2,3,5,6,7-hexahydro-s-indacen-4-yl)carbamoyl)-3,8-diazabicyclo[3.2.1]octane-8-sulfonamide, potassium salt] gave an IC50 (NLRP3 [1]; [3]) of less than 1000 nM and an IC50 (NLRP3 [2]; [4]) of less than 500 nM.
Compound `CC(C)n1cc(NS(=O)(=O)NC(=O)Nc2c3c(cc4c2CCC4)CCC3)cn1` [Example 65, 3-(N-(1-Isopropyl-1H-pyrazol-4-yl)sulfamoyl)-1-(1,2,3,5,6,7-hexahydro-s-indacen-4-yl)urea, potassium salt] has an IC50 (NLRP3 [1]; [3]) of less than 5000 nM and an IC50 (NLRP3 [2]; [4]) of less than 500 nM.
Compound `CN(C)CC1CCN(S(=O)(=O)NC(=O)Nc2c3c(cc4c2CCC4)CCC3)C1` (stereo not shown) [Example 68, potassium salt] has an IC50 (NLRP3 [1]; [3]) of less than 1000 nM and an IC50 (NLRP3 [2]; [4]) of less than 500 nM.
With `CC(C)(C)NCCNS(=O)(=O)NC(=O)Nc1c2c(cc3c1CCC3)CCC2` [Example 71, 3-(N-(2-(tert-Butylamino)ethyl)sulfamoyl)-1-(1,2,3,5,6,7-hexahydro-s-indacen-4-yl)urea, potassium salt] the IC50 (NLRP3 [1]; [3]) was less than 1000 nM and the IC50 (NLRP3 [2]; [4]) was less than 500 nM.
In the case of `O=C(Nc1c2c(cc3c1CCC3)CCC2)NS(=O)(=O)N1CCC(N2CCCC2)C1` (stereo not shown) [Example 72, N-((1,2,3,5,6,7-Hexahydro-s-indacen-4-yl)carbamoyl)-[1,3′-bipyrrolidine]-1′-sulfonamide, potassium salt], the IC50 (NLRP3 [1]; [3]) is reported as less than 500 nM and the IC50 (NLRP3 [2]; [4]) is reported as less than 500 nM.
With `O=C(Nc1c2c(cc3c1CCC3)CCC2)NS(=O)(=O)N1CCC(N2CCC2)C1` (stereo not shown) [Example 73, 3-(Azetidin-1-yl)-N-((1,2,3,5,6,7-hexahydro-s-indacen-4-yl)carbamoyl)pyrrolidine-1-sulfonamide, potassium salt] the IC50 (NLRP3 [1]; [3]) was less than 5000 nM and the IC50 (NLRP3 [2]; [4]) was less than 1000 nM.
`O=C(Nc1c2c(cc3c1CCC3)CCC2)NS(=O)(=O)N1CC2CCC(C1)N2C1CC1` [Example 75, 8-Cyclopropyl-N-((1,2,3,5,6,7-hexahydro-s-indacen-4-yl)carbamoyl)-3,8-diazabicyclo[3.2.1]octane-3-sulfonamide, potassium salt] showed an IC50 (NLRP3 [1]) of less than 5000 nM and an IC50 (NLRP3 [2]) of less than 500 nM.
For `CN1CC[C@H](N(C)S(=O)(=O)NC(=O)Nc2c3c(cc4c2CCC4)CCC3)C1` [Example 76, 3-((S)—N-Methyl-N-(1-methylpyrrolidin-3-yl)sulfamoyl)-1-(1,2,3,5,6,7-hexahydro-s-indacen-4-yl)urea, potassium salt], the IC50 (NLRP3 [1]; [3]) was less than 500 nM and the IC50 (NLRP3 [2]; [4]) was less than 500 nM.
`CN1CCCC1CN(C)S(=O)(=O)NC(=O)Nc1c2c(cc3c1CCC3)CCC2` (stereo not shown) [Example 80, 3-(N-Methyl-N-((1-methylpyrrolidin-2-yl)methyl)sulfamoyl)-1-(1,2,3,5,6,7-hexahydro-s-indacen-4-yl)urea, potassium salt] gave an IC50 (NLRP3 [1]; [3]) of less than 500 nM and an IC50 (NLRP3 [2]; [4]) of less than 500 nM.
In the case of `CN(C)CCCNS(=O)(=O)NC(=O)Nc1c2c(cc3c1CCC3)CCC2` [Example 81, 3-(N-(3-(Dimethylamino)propyl)sulfamoyl)-1-(1,2,3,5,6,7-hexahydro-s-indacen-4-yl)urea, potassium salt], the IC50 (NLRP3 [1]; [3]) is reported as less than 500 nM and the IC50 (NLRP3 [2]; [4]) is reported as less than 500 nM.
Compound `CC(C)N(CCN(C)C)S(=O)(=O)NC(=O)Nc1c2c(cc3c1CCC3)CCC2` [Example 83, 3-(N-(2-(Dimethylamino)ethyl)-N-isopropylsulfamoyl)-1-(1,2,3,5,6,7-hexahydro-s-indacen-4-yl)urea, potassium salt] has an IC50 (NLRP3 [1]; [3]) of less than 5000 nM and an IC50 (NLRP3 [2]; [4]) of less than 1000 nM.
In the case of `CN1CC(CN(C)S(=O)(=O)NC(=O)Nc2c3c(cc4c2CCC4)CCC3)C1` [Example 84, 3-(N-Methyl-N-((1-methylazetidin-3-yl)methyl)sulfamoyl)-1-(1,2,3,5,6,7-hexahydro-s-indacen-4-yl)urea, potassium salt], the IC50 (NLRP3 [1]; [3]) is reported as less than 1000 nM and the IC50 (NLRP3 [2]; [4]) is reported as less than 500 nM.
For `CCN1CC2CN(S(=O)(=O)NC(=O)Nc3c4c(cc5c3CCC5)CCC4)CC21` (stereo not shown) [Example 85, 6-Ethyl-N-((1,2,3,5,6,7-hexahydro-s-indacen-4-yl)carbamoyl)-3,6-diazabicyclo[3.2.0]heptane-3-sulfonamide], the IC50 (NLRP3 [1]; [3]) was less than 500 nM and the IC50 (NLRP3 [2]; [4]) was less than 500 nM.
In the case of `CN1CC2CN(S(=O)(=O)NC(=O)Nc3c4c(cc5c3CCC5)CCC4)CC21` (stereo not shown) [Example 86, N-((1,2,3,5,6,7-Hexahydro-s-indacen-4-yl)carbamoyl)-6-methyl-3,6-diazabicyclo[3.2.0]heptane-3-sulfonamide], the IC50 (NLRP3 [1]; [3]) is reported as less than 500 nM and the IC50 (NLRP3 [2]; [4]) is reported as less than 500 nM.
